Reference: patent US20210023029A1, “EDASALONEXENT DOSING REGIMEN FOR TREATING MUSCULAR DYSTROPHY” (Catabasis Pharmaceuticals, Inc., priority 2017, published 2021)
Read-outs that look alike come from different tables or passages of the source.

What was measured:
[1] = Edasalonexent dosing regimen pharmacokinetics in C57BL/6 mice (diet or oral gavage, LC/MS/MS); assay type: in vivo; conditions: for AUC / Cmax / Tmax / AUC(0-t): C57BL/6, mouse; for AUC(0-t): read-out: AUC0-24 h, day 3 (±SE)
Description: C57BL/6 mice were administered edasalonexent in their diet and/or by oral gavage. Pharmacokinetic (PK) modeling was used to identify suitable dosing amounts and timing in relation to the doses of 67 mg/kg/day and 100 mg/kg/day that have been tested in edasalonexent human clinical trials. Specifically, mice were administered 1.5% edasalonexent in their diet, 450 mg/kg/day delivered orally as single daily dose, 450 mg/kg/day delivered orally as three equally divided doses, or 600 mg/kg/day delivered orally as two 150 mg/kg/doses and one 300 mg/kg/dose. For dosing regimens with three daily doses, doses were delivered at 7:00 am, noon and 5:00 pm.
The dosing regimens for each group are depicted in TABLE 1. Each group included 12 mice.
For animals administered edasalonexent in their diet, edasalonexent concentration was measured by LC/MS/MS every 4 hours for 24 hours, beginning on the seventh day of dosing. For animals administered edasalonexent orally, edasalonexent concentration was measured by LC/MS/MS at 0.25, 0.5, 1, 2, 4, 6 and 24 hours after dosing, beginning on the third day of dosing.

mdx mice = experiment: Quadriceps muscle inflammation and fibrosis in young mdx mice treated four weeks (H&E and picrosirius red staining); assay type: in vivo
Description: Young mdx mice were treated for four weeks with varying dosing regimens of edasalonexent. The mdx mouse is a useful and generally accepted animal model for studying Duchenne muscular dystrophy (DMD) (Mann et al. (2001) PROC. NATL. ACAD. SCI. 98(1):42-7). mdx mice are deficient in expression of full-length dystrophin due to a genetic mutation within the dystrophin gene.
Mice were administered edasalonexent in their diet, and/or by oral gavage. Specifically, mice were administered 1% edasalonexent in their diet, 450 mg/kg/day delivered orally as single daily dose, 450 mg/kg/day delivered orally as three equally divided doses, and/or 600 mg/kg/day delivered orally as two 150 mg/kg/doses and one 300 mg/kg/dose. For dosing regimens with three daily doses, doses were delivered at 7:00 am, noon and 5:00 pm.
The dosing regimens for each treatment group are depicted in TABLE 4. Each treatment group included 10-11 mice.
Animals were treated for four weeks, sacrificed, and tissues were collected for histological analysis. For assessment of inflammation and fibrosis, quadriceps muscles were processed for hematoxylin and eosin (H&E) and picrosirius red (collagen) histochemical staining. From each animal, 2-4 complete transverse sections were digitally analyzed using ImageJ, with the hematoxylin-stained nuclear area determined as a measure of inflammatory infiltration, and the picrosirius red-stained area determined as a measure of fibrosis.

boys with DMD [2] = experiment: MoveDMD trial: MRI-T2 and MR spectroscopy fat fraction of leg muscles; assay type: in vivo, human
Excerpt: The MR transverse relaxation time constant assessed by MRI (MRI-T2; also referred to as bulk T2) is sensitive to several pathophysiological features of disease pathology in DMD, including muscle damage, inflammation, and fat infiltration and provides a method for monitoring disease pathology over a wide age range. Furthermore, the proportion of fat infiltration in the muscle (fat fraction), measured using the gold standard, proton MRS (^1H-MRS), or a 3-point Dixon imaging technique, is associated with disease progression and correlates with performance on functional tests. (Willcocks et al., (2016), ANN. NEUROL., 79(4):535-47; Barnard et al., (2018), PLoS ONE, 13(3):E0194283). These are non-invasive measures of disease progression in DMD that are elevated and increase with age; changes in these measures strongly correlate with changes in function and predict future loss of functional milestones. […] The MRI-T2 value was a composite of 5 lower leg muscles. Stabilization of MRI-T2 values is consistent with the concomitant slowing of DMD disease progression observed through the functional assessments discussed previously.

boys with DMD [3] = experiment: MoveDMD trial: safety and tolerability; assay type: in vivo, human
Description: The MoveDMD trial (see FIG. 10) was designed to evaluate efficacy, safety/tolerability, pharmacokinetics (PK), pharmacodynamics (PD), and dose response of edasalonexent. The first phase portion of the MoveDMD trial was a 1-week study to evaluate the safety, PK, and PD at 33 and 67 mg/kg/day, given in 2 divided doses, and 100 mg/kg/day given in 3 divided doses. The second phase and the open-label extension (OLE) portions of the MoveDMD trial enrolled boys ages 4 through 7 with DMD. Phase 2 was a 12-week placebo-controlled study with two cohorts given 33 mg/kg twice daily (BID; 67 mg/kg/day; n=10) or 33 mg/kg three times daily (TID; 100 mg/kg/day; n=10), and a placebo cohort (n=10). Patients in the OLE continued with either dose regimen of edasalonexent.

NF-κB [4] = conditions: dog model of DMD; cited from earlier work
NF-κB [5] = conditions: cited from earlier work
[6] = gastrocnemius, 1.5% edasalonexent in diet (group 1)
[7] = group 2, 1% edasalonexent in diet
[8] = group 4, oral QD 450 mg/kg/dose
[9] = group 7, oral TID 150/150/300 mg/kg/dose = 600 mg/kg/day
[10] = after 48 weeks receiving 100 mg/kg/day

Work on `CC/C=C\C/C=C\C/C=C\C/C=C\C/C=C\C/C=C\CCC(=O)NCCNC(=O)c1ccccc1O` [edasalonexent, N-(2-[(4Z,7Z,10Z,13Z,16Z,19Z)-docosa-4,7,10,13,16,19-hexaenamido]ethyl)-2-hydroxybenzamide] yielded an AUC ([1]; po, 1.5 % in diet, gastrocnemius, 1.5% edasalonexent in diet (group 1)) of 7620 ng·h/mL, a Cmax ([1]; po, 1.5 % in diet, gastrocnemius, 1.5% edasalonexent in diet (group 1), read-out: Cmax) of 532 ng/mL and an AUC ([1]; po, 1.5 % in diet, plasma, 1.5% edasalonexent in diet (group 1)) of 524 ng·h/mL. It also gave a Cmax ([1]; po, 1.5 % in diet, plasma, 1.5% edasalonexent in diet (group 1), read-out: Cmax) of 44.6 ng/mL, a Tmax ([1]; plasma, group 2, oral QD 450 mg/kg/dose, day 3) of 30 min and a Cmax ([1]; plasma, group 2, oral QD 450 mg/kg/dose, day 3, read-out: Cmax (±SE)) of 604 ± 83.3 ng/mL. For the same compound, the AUC(0-t) ([1]; plasma, group 2, oral QD 450 mg/kg/dose) was 1320 ng·h/mL, the Tmax ([1]; plasma, group 3, oral TID 150 mg/kg/dose = 450 mg/kg/day, day 3) was 30 min and the Cmax ([1]; plasma, group 3, oral TID 150 mg/kg/dose = 450 mg/kg/day, day 3, read-out: Cmax (±SE)) was 452 ± 47.6 ng/mL. For the same compound, the AUC(0-t) ([1]; plasma, group 3, oral TID 150 mg/kg/dose = 450 mg/kg/day) was 1360 ± 211 ng·h/mL, the Tmax ([1]; plasma, group 4, oral TID 150/150/300 mg/kg/dose = 600 mg/kg/day, day 3) was 30 min and the Cmax ([1]; plasma, group 4, oral TID 150/150/300 mg/kg/dose = 600 mg/kg/day, day 3, read-out: Cmax (±SE)) was 278 ± 46.3 ng/mL. For the same compound, the AUC(0-t) ([1]; plasma, group 4, oral TID 150/150/300 mg/kg/dose = 600 mg/kg/day) was 2270 ± 587 ng·h/mL, the Cmean [1, 6] was 332.8 ng/mL and the Cmin [1, 6] was 149.4 ng/mL. The “AUC of single daily 450 mg/kg dose relative to edasalonexent in diet” value ([1]; group 2 (450 mg/kg QD) versus group 1 (1.5% in diet), plasma) was ~2.5 fold, the Cmin ([1]; plasma, 1.5% edasalonexent in diet (group 1)) was 10.7 ng/mL and the Cmean ([1]; plasma, 1.5% edasalonexent in diet (group 1), from seventh day of dosing) was 22.4 ng/mL. The “quadriceps muscle fibrosis (picrosirius red-stained area)” value (from here on “quadriceps muscle fibrosis”) (mdx mice; [7]) was “reduced”, the “quadriceps muscle inflammation (hematoxylin-stained nuclear area)” value (“quadriceps muscle inflammation” for short) (mdx mice; [7]) was “reduced” and the “quadriceps muscle fibrosis” value (mdx mice; [8]) was “did not cause a significant reduction”. For the same compound, the “quadriceps muscle inflammation” value (mdx mice; [8]) was “did not cause a significant reduction”, the “quadriceps muscle fibrosis” value (mdx mice; [9]) was “further drove efficacy” and the “quadriceps muscle inflammation” value (mdx mice; [9]) was “further drove efficacy”. For the same compound, the “annualized rate of change of MRI-T2 values (composite of 5 lower leg muscles)” value (boys with DMD [2]; 100 mg/kg/day treatment period (60 weeks) versus off-treatment period (36 weeks)) was “significantly improved”, the “change in fat fraction, soleus (MR spectroscopy)” value (boys with DMD [2]; [10]) was 0.85% and the “change in fat fraction, vastus lateralis (MR spectroscopy)” value (boys with DMD [2]; [10]) was 5.9%. For the same compound, the “nature of the majority of adverse events” value (boys with DMD [3]; 100 mg/kg, study subjects) was “mild in nature and mostly gastrointestinal”, the safety findings (boys with DMD [3]; 100 mg/kg, study subjects) was “no adverse findings” and the tolerability (boys with DMD [3]; 100 mg/kg, study subjects) was “well tolerated”. For the same compound, the “trends in hematology, chemistry, renal or adrenal function, calcium or phosphate levels” value (boys with DMD [3]; 100 mg/kg, study subjects) was “No adverse trends”, the “side effects compared to the 133 mg/kg/day dosing regimen” value (boys with DMD [3]; 100 mg/kg/day versus 133 mg/kg/day (33/33/67 mg/kg)) was “fewer side effects” and the heart rate (boys with DMD [3]; study subjects over the 60 week study period) was “decreased toward age normative values”. For the same compound, the height and weight (boys with DMD [3]; study subjects over the treatment period, CDC Growth Chart percentiles) was “age appropriate increases”, the “NF-κB activity (binding of p65 subunit to DNA, secretion of TNF-α)” value (NF-κB [4]) was “decreases NF-κB activity” and the “expression of NF-κB driven genes in whole blood” value (NF-κB [5]; adult study, dose of approximately 100 mg/kg/day) was “changes in expression of NF-κB driven genes were observed”. For the same compound, the “levels of the p65 subunit of NF-κB” value (NF-κB [5]; healthy adult humans, compared to placebo or salicylate and omega-3 DHA as separate molecules) was “lowers levels of the p65 subunit of NF-κB”, the “biomarkers of inflammation in whole blood” value (NF-κB [5]; humans) was “decrease of biomarkers of inflammation” and the “activated NF-κB pathways” value (NF-κB [5]; phase 1 clinical program in adults (Donovan et al. 2017)) was “inhibited activated NF-κB pathways”. For the same compound, the safety and tolerability (NF-κB [5]; phase 1 clinical program, three placebo-controlled studies in adults (Donovan et al. 2017)) was “safe and well-tolerated”.
